SMILES strings stand for the structures.

In the first assay the test system is T66I integrase site-directed mutant resistance test vector. Nature of the assay: Phenotypic susceptibility assay, T66I integrase mutant vector. The settings on record: T66I integrase mutant. The format is cell-based, HIV. As to the method: Transfections were performed using a calcium-phosphate precipitation procedure. […] Cell lysates were assayed for luciferase activity (FIG. 3).
The drug inhibition curves are shown in (FIG. 3).
A resistance test vector containing the threonine to isoleucine mutation at position 66 of the integrase protein (T66I) was constructed and tested using the phenotypic assay described earlier.
Take `O=C(O)C(=O)CC(=O)c1cccn1Cc1ccc(F)cc1` [L-731,988]: the “reduction in susceptibility compared to wild type control RTV” value is 4.7 fold.

The next assay concerns RTV-268 (patient sample 97-268; P236L). As to the kind of experiment: Phenotypic susceptibility assay, RTV-268. To be noted: RTV-268 / patient 268. Format: cell-based, HIV-1. The text has this: The resistance test vectors containing a functional luciferase gene cassette were constructed and host cells were transfected with the resistance test vector DNA. The resistant test vectors contained patient-derived reverse transcriptase and protease sequences that were either susceptible or resistant to the antiretroviral agents, such as nucleoside reverse transcriptase inhibitors, non-nucleoside reverse transcriptase inhibitors and protease inhibitors. The resistance test vector viral particles produced by transfecting the resistance test vector DNA into host cells, either in the presence or absence of protease inhibitors, were used to infect target host cells grown either in the absence of NRTI or NNRTI or in the presence of increasing concentrations of the drug. The amount of luciferase activity produced in infected target host cells in the presence of drug was compared to the amount of luciferase produced in infected target host cells in the absence of drug. Drug resistance was measured as the amount of drug required to inhibit by 50% the luciferase activity detected in the absence of drug (inhibitory concentration 50%, IC50). The IC50 values were determined by plotting percent drug inhibition vs. log10 drug concentration.
Host cells were seeded in 10-cm-diameter dishes and were transfected several days after plating with resistance test vector plasmid DNA and the envelope expression vector. Transfections were performed using a calcium-phosphate precipitation procedure. The cell culture media containing the DNA precipitate was replaced with fresh medium, from one to 24 hours, after transfection. Cell culture media containing resistance test vector viral particles was harvested one to four days after transfection and was passed through a […] filter before being stored at −80° C. HIV capsid protein (p24) levels in the harvested cell culture media were determined by an EIA method as described by the manufacturer (SIAC; Frederick, Md.). Before infection, target cells (293 and 293/T) were plated in cell culture media. Control infections were performed using cell culture media from mock transfections (no DNA) or transfections containing the resistance test vector plasmid DNA without the envelope expression plasmid. One to three or more days after infection the media was removed and cell lysis buffer (Promega) was added to each well. […] The inhibitory effect of the drug was determined using the following equation: […]
where RLUluc [drug] is the relative light unit of luciferase activity in infected cells in the presence of drug and RLUluc is the Relative Light Unit of luciferase activity in infected cells in the absence of drug. IC50 values were obtained from the sigmoidal curves that were generated from the data by plotting the percent inhibition of luciferase activity vs. the log10 drug concentration.
A resistance test vector was constructed as described in Example 1 from a patient sample designated 97-268. […] Isolation of viral RNA and RT/PCR was used to generate a patient derived segment that comprised viral sequences coding for all of PR and amino acids 1-313 of RT. The patient derived segment was inserted into a indicator gene viral vector to generate a resistance test vector designated RTV-268. RTV-268 was then tested using the phenotypic susceptibility assay to determine accurately and quantitatively the level of susceptibility to a panel of anti-retroviral drugs. […] An IC50 was determined for each drug tested. Susceptibility of the patient virus to each drug was examined and compared to the susceptibility of a reference virus. […] The sample was examined further for genotypic changes associated with the pattern of susceptibility.
Turning to `Nc1ccn([C@H]2CC[C@@H](CO)O2)c(=O)n1` [ddC], the “susceptibility/resistance compared to reference virus” value is “slight shifts in susceptibility”.
For the molecule `O=c1[nH]cnc2c1ncn2[C@H]1CC[C@@H](CO)O1` [ddI], the “susceptibility/resistance compared to reference virus” value was “slight shifts in susceptibility”.
As for `Cc1cn([C@H]2C[C@H](N=[N+]=[N-])[C@@H](CO)O2)c(=O)[nH]c1=O` [AZT], the “susceptibility/resistance compared to reference virus” value is “significant resistance”.
For `Nc1ccn([C@@H]2CS[C@H](CO)O2)c(=O)n1` [3TC], the “susceptibility/resistance compared to reference virus” value is on record as “significant resistance”.
Same read-out and setting: in the case of `Cc1cn([C@H]2C=C[C@@H](CO)O2)c(=O)[nH]c1=O` [d4T] it was “slight shifts in susceptibility”.
